Results on 3 compounds are retold here after ChEMBL document CHEMBL1151152, “7-deoxy-6-epi-castanospermine, a trihydroxyindolizidine alkaloid glycosidase inhibitor from Castanospermum australe” (J Nat Prod, 1990).

The test system of assay [1] is Aspergillus niger. Description: Inhibition of Aspergillus niger amyloglucosidase at 20 uM by competitive inhibition-based kinetic assay.
Assay [2] concerns Aspergillus niger. In words: Inhibition of Aspergillus niger amyloglucosidase by competitive inhibition-based kinetic assay.
The subject of assay [3] is Aspergillus niger. In words: Inhibition of Aspergillus niger amyloglucosidase at 7 uM by competitive inhibition-based kinetic assay.
The subject of assay [4] is Prunus dulcis. In words: Inhibition of almond beta-glucosidase up to 1 mM.
For assay [5], the system named is Canavalia ensiformis. In words: Inhibition of jack bean alpha-mannosidase up to 1 mM.
Assay [6] relates to Vigna radiata var. radiata. Description: Inhibition of mung bean seedlings glucosidase 2 up to 1 mM.
Assay [7] deals with Vigna radiata var. radiata. Description: Inhibition of mung bean seedlings glucosidase 1.
Assay [8] has as its system Aspergillus niger. In words: Inhibition of Aspergillus niger alpha-galactosidase up to 1 mM.
The target in assay [9] is Sucrase-isomaltase, intestinal (Rattus norvegicus) (UniProt P23739). Description: Inhibition of Sprague-Dawley rat small intestine sucrase at 1 mM.
The target is the same in assay [10]. In words: Inhibition of Sprague-Dawley rat small intestine sucrase.
The target of assay [11] is T1, Beta-glucuronidase (Bos taurus) (UniProt A3KMY8).
T1 sequence (whole entry): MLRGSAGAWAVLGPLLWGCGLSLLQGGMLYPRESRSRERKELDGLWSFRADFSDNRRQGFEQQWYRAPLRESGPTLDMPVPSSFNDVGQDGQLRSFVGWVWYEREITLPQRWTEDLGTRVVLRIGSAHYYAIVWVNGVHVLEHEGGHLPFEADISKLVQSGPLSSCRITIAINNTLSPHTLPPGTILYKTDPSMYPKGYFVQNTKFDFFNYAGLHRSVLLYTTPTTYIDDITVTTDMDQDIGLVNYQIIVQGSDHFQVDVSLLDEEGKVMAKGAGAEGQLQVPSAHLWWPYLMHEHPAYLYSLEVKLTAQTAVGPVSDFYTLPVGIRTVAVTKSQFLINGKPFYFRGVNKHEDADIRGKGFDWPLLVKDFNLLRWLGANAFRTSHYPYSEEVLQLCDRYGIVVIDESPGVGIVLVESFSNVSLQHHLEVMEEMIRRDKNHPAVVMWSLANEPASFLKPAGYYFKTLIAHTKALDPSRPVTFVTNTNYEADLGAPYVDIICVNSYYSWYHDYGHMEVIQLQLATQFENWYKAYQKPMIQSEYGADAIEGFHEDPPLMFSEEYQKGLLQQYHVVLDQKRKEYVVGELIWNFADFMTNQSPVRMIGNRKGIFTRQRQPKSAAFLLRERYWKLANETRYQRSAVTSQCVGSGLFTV
Description: Inhibition of bovine liver beta-glucuronidase up to 1 mM.

Assay [12] deals with Aspergillus niger. Description: Inhibition of Aspergillus niger beta-xylosidase up to 1 mM.
The test system of assay [13] is Saccharomyces cerevisiae. In words: Inhibition of yeast alpha-glucosidase at 1 mM.
For assay [14], the species on record is Bos taurus. In words: Inhibition of bovine liver beta-galactosidase at 1 mM.
Assay [15] is filed under the species Bos taurus. In words: Inhibition of bovine epididymis beta-N-acetylglucosaminidase B up to 1 mM.
The subject of assay [16] is Vigna radiata var. radiata. In words: Inhibition of mung bean seedlings glucosidase 1 at 1 mM.
Assay [17] is filed under the species Bos taurus. In words: Inhibition of bovine kidney alpha-L-fucosidase up to 1 mM.
Assay [18] is filed under the species Bos taurus. In words: Inhibition of bovine liver beta-galactosidase.
Assay [19] has as its system Saccharomyces cerevisiae. In words: Inhibition of yeast alpha-glucosidase.
Assay [20] relates to Aspergillus niger. Description: Inhibition of Aspergillus niger amyloglucosidase at 230 uM by competitive inhibition-based kinetic assay.
The test system of assay [21] is Aspergillus niger. In words: Inhibition of Aspergillus niger alpha-mannosidase up to 1 mM.

Each structure is given as a SMILES string. Active and inactive are the calls of the source. The rule behind the calls is not given here.

Sucrase-isomaltase, intestinal (Rattus norvegicus), sequence (P23739 1-1013 limits assumed): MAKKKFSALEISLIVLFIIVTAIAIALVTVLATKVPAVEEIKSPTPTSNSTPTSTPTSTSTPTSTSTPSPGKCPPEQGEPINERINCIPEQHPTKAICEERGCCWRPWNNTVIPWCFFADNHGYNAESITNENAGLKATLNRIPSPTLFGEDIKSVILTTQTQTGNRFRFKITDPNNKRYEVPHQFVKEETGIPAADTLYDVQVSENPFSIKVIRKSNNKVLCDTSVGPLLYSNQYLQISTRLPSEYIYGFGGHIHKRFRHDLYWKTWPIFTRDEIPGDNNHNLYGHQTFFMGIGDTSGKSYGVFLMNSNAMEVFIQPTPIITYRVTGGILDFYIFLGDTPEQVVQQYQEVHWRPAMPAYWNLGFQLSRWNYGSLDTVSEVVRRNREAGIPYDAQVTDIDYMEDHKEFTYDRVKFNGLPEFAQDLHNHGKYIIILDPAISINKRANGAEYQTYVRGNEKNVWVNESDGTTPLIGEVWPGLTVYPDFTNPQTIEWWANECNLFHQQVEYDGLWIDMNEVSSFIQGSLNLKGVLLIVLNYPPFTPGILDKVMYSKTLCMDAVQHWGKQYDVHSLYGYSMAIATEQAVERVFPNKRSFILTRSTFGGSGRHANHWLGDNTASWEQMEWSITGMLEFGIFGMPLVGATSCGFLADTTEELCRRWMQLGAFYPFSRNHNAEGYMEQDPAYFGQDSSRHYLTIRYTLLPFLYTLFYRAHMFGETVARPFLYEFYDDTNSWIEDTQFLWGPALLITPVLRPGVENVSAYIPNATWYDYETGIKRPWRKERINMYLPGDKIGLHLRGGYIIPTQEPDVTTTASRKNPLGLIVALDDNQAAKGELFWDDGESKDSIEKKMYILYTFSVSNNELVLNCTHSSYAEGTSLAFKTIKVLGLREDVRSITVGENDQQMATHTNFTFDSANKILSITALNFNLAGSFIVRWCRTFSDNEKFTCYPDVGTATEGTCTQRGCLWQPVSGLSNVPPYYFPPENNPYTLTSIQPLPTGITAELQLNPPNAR
Sucrase-isomaltase, intestinal (Rattus norvegicus), sequence (P23739 1014-1841 limits assumed): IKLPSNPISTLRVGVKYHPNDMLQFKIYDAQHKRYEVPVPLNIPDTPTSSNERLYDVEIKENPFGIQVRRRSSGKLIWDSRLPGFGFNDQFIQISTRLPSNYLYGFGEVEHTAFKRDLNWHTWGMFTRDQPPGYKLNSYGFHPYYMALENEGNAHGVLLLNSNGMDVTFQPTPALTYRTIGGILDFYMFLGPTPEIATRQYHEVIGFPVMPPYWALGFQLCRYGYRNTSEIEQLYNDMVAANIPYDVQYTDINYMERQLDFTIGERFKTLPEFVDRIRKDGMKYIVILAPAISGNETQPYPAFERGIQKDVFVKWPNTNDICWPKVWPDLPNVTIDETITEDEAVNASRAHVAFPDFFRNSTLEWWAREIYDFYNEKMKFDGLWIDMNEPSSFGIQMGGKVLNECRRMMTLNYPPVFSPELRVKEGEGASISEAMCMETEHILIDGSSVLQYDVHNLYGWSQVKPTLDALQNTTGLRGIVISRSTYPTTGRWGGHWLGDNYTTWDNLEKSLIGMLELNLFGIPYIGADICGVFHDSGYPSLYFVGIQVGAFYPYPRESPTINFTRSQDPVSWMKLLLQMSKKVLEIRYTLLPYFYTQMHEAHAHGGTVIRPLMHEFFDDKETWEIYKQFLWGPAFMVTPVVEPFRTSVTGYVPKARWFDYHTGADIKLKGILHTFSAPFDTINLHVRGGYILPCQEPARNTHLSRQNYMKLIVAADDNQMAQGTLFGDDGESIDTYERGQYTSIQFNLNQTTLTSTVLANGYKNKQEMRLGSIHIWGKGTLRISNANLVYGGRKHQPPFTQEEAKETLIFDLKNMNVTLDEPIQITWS

In the case of `O[C@H]1[C@H](O)[C@H](O)CN2CC[C@H](O)[C@H]12`, in assay [1], the inhibition stood at 50%. The result in assay [2] was Active.

Compound `O[C@H]1[C@H](O)[C@@H](O)CN2CC[C@H](O)[C@H]12` yielded an inhibition in [3] of 50%. Further, the outcome in assay [2] was Active.

As to `O[C@H]1C[C@H](O)[C@H]2[C@@H](O)CCN2C1`, the result in assay [4], in [5], in assay [6], in assay [8], in assay [11] and in [12] was inactive. Further, the result in [15], in assay [17] and in [21] was inactive. Besides, the outcome in [7], in assay [10], in [18], in assay [2] and in assay [19] was Active. In addition, the inhibition was found to be 30% in [9]; 50% in assay [13]; 20% in assay [14]; 35% in assay [16]; 50% in assay [20].

As a reminder, the inhibition is the change of the read-out against control, counted positive when it falls.
